Reference: patent publication US20210292304A1 (HINOVA PHARMACEUTICALS INC., priority 2018, published 2021)

Biological target: T1, CYP2C8 (Homo sapiens, UniProt P10632)
T1 sequence (P10632 1-490): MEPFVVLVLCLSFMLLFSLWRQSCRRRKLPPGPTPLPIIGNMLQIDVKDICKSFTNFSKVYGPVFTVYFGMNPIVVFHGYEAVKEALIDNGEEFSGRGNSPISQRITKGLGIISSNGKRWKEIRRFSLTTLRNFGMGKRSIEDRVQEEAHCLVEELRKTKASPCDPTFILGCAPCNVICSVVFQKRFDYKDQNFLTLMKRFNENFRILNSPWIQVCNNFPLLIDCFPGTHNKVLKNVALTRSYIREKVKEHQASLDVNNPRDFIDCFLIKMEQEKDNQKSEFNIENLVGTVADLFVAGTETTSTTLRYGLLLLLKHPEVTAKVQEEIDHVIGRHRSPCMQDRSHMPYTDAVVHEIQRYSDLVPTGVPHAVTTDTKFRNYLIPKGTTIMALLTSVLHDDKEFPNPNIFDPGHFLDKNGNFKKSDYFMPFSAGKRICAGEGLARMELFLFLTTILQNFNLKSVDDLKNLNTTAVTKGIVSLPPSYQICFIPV
Assay: Metabolic stability in recombinant human CYP2C8 metabolic enzyme
Format: in vitro ADME
Conditions: CYP subtype 2C8, test concentration 2 (M); for half-life at 2 µM: human, recombinant CYP2C8, pH 7.4, read-out: Half-life T1/2
Method: 1) Na2HPO4, KH2PO4, and pure water were used to prepare phosphate buffer (100 mM, pH 7.4);
2) Test compound and reference compound were dissolved in acetonitrile to obtain a working solution (200 M);
3) NADPH solution (10 mM) was prepared with NADPH and phosphate buffer (100 mM, pH 7.4);
4) The stock solution of recombinant CYP2C8 enzyme was diluted to […] with phosphate buffer (100 mM, pH 7.4);
5) The working solution of test compound or reference compound Amitriptyline was added to CYP2C8 solution, and the concentration of compound was 2 M, to which was added NADPH solution (10 mM) to initiate a metabolic reaction. 30 L incubation solution of metabolic reaction was collected at 0, 5, 10, 15, 25 minutes, and transferred to a quenching plate to quench with 120 L acetonitrile (including internal standard);
6) The sample was centrifuged at 4° C. for 60 min to precipitate the protein. The supernatant was collected and transferred to a 96-well plate, then diluted one times with pure water, and subjected to LC-MS/MS analysis;
7) The data analysis and calculation were similar to experimental example 2.

| SMILES | Clearance rate CLint [μL/min/pmol CYP450] | Percentage of residual substances after 25 minutes [%] | half-life at 2 µM [h] |
| --- | --- | --- | --- |
| [2H]C([2H])([2H])C([2H])(c1cc(Oc2c(Cl)cc(-n3nc(C#N)c(=O)[nH]c3=O)cc2Cl)n[nH]c1=O)C([2H])([2H])[2H] [Compound 2] | 0.08 | 80.87 | 1.51 |
| [2H]c1c(Oc2c(Cl)cc(-n3nc(C#N)c(=O)[nH]c3=O)cc2Cl)n[nH]c(=O)c1C(C([2H])([2H])[2H])C([2H])([2H])[2H] [Compound 11, 2-(3,5-dichloro-4-((4-deuterio-5-(1,1,1,3,3,3-hexadeuteropropan-2-yl)-6-oxo-1,6-dihydro-pyridazin-3-yl)oxy)phenyl)-3,5-dioxo-2,3,4,5-tetrahydro-1,2,4-triazine-6-carbonitrile] | 0.06 | 85.57 | 1.83 |
| [2H]c1c(Oc2c(Cl)cc(-n3nc(C#N)c(=O)[nH]c3=O)cc2Cl)n[nH]c(=O)c1C([2H])(C([2H])([2H])[2H])C([2H])([2H])[2H] [Compound 10, 2-(3,5-dichloro-4-((4-deuterio-5-(heptadeuteroisopropyl)-6-oxo-1,6-dihydro-pyridazin3-yl)oxy)phenyl)-3,5-dioxo-2,3,4,5-tetrahydro-1,2,4-triazine-6-carbonitrile] | 0.07 | 81.60 | 1.6 |
